Laboratory results as given in paper PMC6272127, “Synthesis, Antiproliferative Activity and Molecular Properties Predictions of Galloyl Derivatives” (Molecules, 2015).
Values after ≈ are worked out from the molar mass of the structure shown.

Legend:
U251 (glioma, CNS) = assay: cells; settings: for TGI: U251, total growth inhibition, 48 h
Experimental: The GI50 values (growth inhibitory activity) (Table 1) refer to the drug concentration that produces a 50% reduction of cellular growth compared with the untreated control cells. The TGI (cytostatic activity) and LC50 (cytotoxic activity) values (Table 2) refer to the drug concentration required for total growth inhibition and killing 50% of the cells, respectively.
The synthesized compounds were assessed in the following ten human tumor cell lines from various tissues kindly provide by the National Cancer Institute (Frederick, MD, USA): U251 (glioma, CNS), MCF-7 (breast), NCI-ADR/RES (breast expressing the multiple drug resistance phenotype), 786-0 (renal), NCI-H460 (lung, non-small cells), PC-3 (prostate), OVCAR-3 (ovarian), HT-29 (colon), K-562 (leukemia) and HaCaT (keratinocytes). Stock cultures were grown in media containing 5 mL of RPMI 1640 (Gibco BRL) supplemented with 5% fetal bovine serum. Gentamicin ([…]) was added to the experimental cultures. Cells in 96-well plates (100 µL cells/well) were exposed to sample concentrations in DMSO/RPMI (0.25, 2.5, 25, and 250 µg/mL) at 37 °C and 5% CO2 for 48 h. […] Next, cells were fixed with 50% trichloroacetic acid, and cell proliferation was determined by spectrophotometric quantification (540 nm) of cellular protein content employing the sulforhodamine B assay. Doxorubicin (0.025–25 µg/mL) was used as a positive control. Three measurements were obtained: first at time point zero (T0, at the beginning of incubation) and then 48 h post-incubation for both the compound-free (C) and tested (T) cells. Cell proliferation was determined using the equation 100 × [(T − T0)/C − T0]. A cytostatic effect was observed when T ≥ T0, while a cytocidal effect occurred when T < T0. The experiments were performed in triplicate.

OVCAR-3 (ovarian) = assay: Anticancer assay in vitro (sulforhodamine B), OVCAR-3; format: cell-based; settings: for GI50: OVCAR-3, 48 h, SRB; for TGI: OVCAR-3, total growth inhibition, 48 h
Experimental: (§1) The experiments were performed in triplicate.

786-0 (renal) = assay: cells; format: cell-based; settings: for GI50: 786-0, 48 h, SRB
Experimental: as §1

[1] = system: NCI-ADR/RES (breast expressing the multiple drug resistance phenotype); assay: cells; format: cell-based; settings: NCI/ADR-RES, 48 h; for GI50: SRB; for TGI: total growth inhibition
Experimental: as §1

PC-3 (prostate) = assay: cells; format: cell-based; settings: for GI50: PC-3, 48 h, SRB; for TGI: PC-3, total growth inhibition, 48 h
Experimental: as §1

HaCaT (keratinocytes) = assay: Anticancer assay in vitro (sulforhodamine B), HaCaT; format: cell-based; settings: 48 h; for GI50: SRB; for TGI: total growth inhibition
Experimental: as §1

[2] = system: ten human tumor cell lines; assay: Anticancer assay in vitro (sulforhodamine B), statements over the panel of cell lines; format: cell-based; settings: for cytotoxic efficacy: OVCAR-3 and K-562 cell lines
Experimental: as §1

MCF-7 (breast) = assay: Anticancer assay in vitro (sulforhodamine B), MCF-7; format: cell-based; settings: for GI50: MCF-7, 48 h, SRB; for TGI: MCF-7, total growth inhibition
Experimental: as §1

HT-29 (colon) = assay: Anticancer assay in vitro (sulforhodamine B), HT-29; format: cell-based; settings: for TGI: HT-29, total growth inhibition, 48 h; for GI50: HT-29, 48 h, SRB
Experimental: as §1

K-562 (leukemia) = assay: cells; format: cell-based; settings: for GI50: K-562, 48 h, SRB
Experimental: as §1

[3] = system: NCI-H460 (lung, non-small cells); assay: cells; format: cell-based; settings: for GI50: NCI-H460, 48 h, SRB
Experimental: as §1

[4] = Anticancer assay in vitro (sulforhodamine B), HaCaT; format: cell-based; settings: human, HaCaT keratinocytes, killing 50% of cells, read-out: LC50
Experimental: as §1

[5] = K-562, total growth inhibition, 48 h

Row | Compound | GI50 (U251 (glioma, CNS); Homo sapiens, U-251, 48 h) [µM] | GI50 (OVCAR-3 (ovarian); Homo sapiens) [µM] | GI50 (786-0 (renal); Homo sapiens) [µM] | GI50 ([1]; Homo sapiens) [µM] | GI50 (PC-3 (prostate); Homo sapiens) [µM] | TGI (PC-3 (prostate)) [µg/mL] | GI50 (HaCaT (keratinocytes); Homo sapiens) [µM] | cytotoxic efficacy [2] | GI50 (MCF-7 (breast); Homo sapiens, MCF7) [µM] | TGI (MCF-7 (breast); 48 h) [µg/mL] | TGI (OVCAR-3 (ovarian)) [µg/mL] | TGI (HT-29 (colon)) [µg/mL] | GI50 (HT-29 (colon); Homo sapiens) [µM] | GI50 (K-562 (leukemia); Homo sapiens, K562) [µM] | TGI (K-562 (leukemia); [5]) [µg/mL] | TGI [1] [µg/mL] | GI50 ([3]; Homo sapiens) [µM] | TGI (HaCaT (keratinocytes)) [µg/mL] | TGI (U251 (glioma, CNS)) [µg/mL] | also measured
1 | O=C(N/N=C/c1ccc([N+](=O)[O-])cc1)c1cc(O)c(O)c(O)c1 [Compound 6, N'-(4-Nitrobenzylidene)galloyl hydrazide] | 5.12 | 5.91 | 7.6 | 8.46 | 14 | 84.67 (≈ 267 µM) | 31.6 | did not demonstrate cytotoxic efficacy |  |  |  |  |  |  |  |  |  |  |  | 
2 | CN(C)c1ccc(/C=N/NC(=O)c2cc(O)c(O)c(O)c2)cc1 [Compound 5, N'-(4-Dimethylaminobenzylidene)galloyl hydrazide] | 24.1 | 2.93 | 8.93 | 4.68 |  |  | 4.05 |  | 8.61 | 20.26 (≈ 64.3 µM) | 41.52 (≈ 132 µM) | 48.50 (≈ 154 µM) | 16.2 | 2.05 | 8.98 | 83.07 (≈ 263 µM) | 21.6 | 18.41 (≈ 58.4 µM) |  | CC50 (MCF-7 (breast); Homo sapiens, MCF7, MCF-7, killing 50% of cells, 48 h, read-out: LC50 (the source's name)): 47.9 µg/mL (≈ 152 µM); TGI (K-562 (leukemia); K-562, as printed in the text): 8.98 µM; CC50 at 48 h [4]: 55.3 µg/mL (≈ 175 µM)
3 | COc1ccc(/C=N/NC(=O)c2cc(O)c(O)c(O)c2)cc1 [Compound 7, N'-(4-Methoxybenzylidene)galloyl hydrazide] | 9.14 | 5.98 | 18.9 | 11.3 | 19.6 |  | 18.1 | did not demonstrate cytotoxic efficacy | 15.7 |  |  |  | 25.1 | 8.93 | 41.76 | 66.56 (≈ 220 µM) | 41.1 |  | 64.22 (≈ 212 µM) | 
4 | Galloyl-2-thioxo-1,3,4-oxadiazole [Compound 9] |  |  |  |  |  | 18.09 |  |  |  | 5.06 | 13.62 | 13.74 |  |  | 11.35 | 15.86 |  | 16.53 | 14.58 | LC50 (U251 (glioma, CNS)): (41.26) µg/mL; GI50 (U251 (glioma, CNS); U251, 48 h, SRB): 4.2 µM; GI50 (MCF-7 (breast)): 1.08 µM; LC50 (OVCAR-3 (ovarian)): (58.99) µg/mL; GI50 (OVCAR-3 (ovarian)): 0.89 µM; LC50 (HT-29 (colon)): (58.99) µg/mL; GI50 (HT-29 (colon)): 2.61 µM; GI50 (786-0 (renal)): 8.9 µM; TGI (786-0 (renal); 786-0, total growth inhibition, 48 h): 24.68 µg/mL; LC50 (K-562 (leukemia)): (58.99) µg/mL; GI50 (K-562 (leukemia)): 1.72 µM; GI50 [1]: 2.83 µM; LC50 [3]: (42.67) µg/mL; GI50 [3]: 8.77 µM; TGI ([3]; NCI-H460, total growth inhibition, 48 h): 19.43 µg/mL; LC50 (PC-3 (prostate)): (56.99) µg/mL; GI50 (PC-3 (prostate)): 6.05 µM; GI50 (HaCaT (keratinocytes)): 2.25 µM; GI50 ([2]; bound or range over all (for 4: nine) human tumor cell lines, read-out: GI50 values over the cell lines tested): < 8.9 µM
